In patent US4472579A, “Process for the preparation of quinoline carboxylic acid derivatives” (Kyorin Seiyaku Kabushiki Kaisha, priority 1980, dated 1984) one finds MIC data, which are given here for five compounds.

Assay in all cases: Antibacterial activity, agar dilution streak MIC
What all share (type): cell-based

The test system of assay [1] is Shigella sonnei IID969. Conditions: Shigella sonnei IID969, Gram -; read-out: Minimum inhibitory concentration. The procedure: The antibacterial activities of the compounds of this invention were assayed by the standard agar dilution streak method against Gram-positive and Gram-negative bacteria [Chemothrapy, 22, 1126 (1974)]. The result was shown in Table 1 together with a known agent, nalidixic acid.

Assay [2] deals with Proteus vulgaris IF03167. Conditions: Proteus vulgaris IF03167, Gram -; read-out: Minimum inhibitory concentration. Here is the method:
(§1) The antibacterial activities of the compounds of this invention were assayed by the standard agar dilution streak method against Gram-positive and Gram-negative bacteria [Chemothrapy, 22, 1126 (1974)].

The test system of assay [3] is Klebsiella pneumoniae IF03512. Conditions: Klebsiella pneumoniae IF03512, Gram -; read-out: Minimum inhibitory concentration. The procedure:
as §1

Assay [4] has as its system Salmonella enteritidis IID604. Conditions: Salmonella enterica, read-out: Minimum inhibitory concentration. The procedure:
as §1

The test system of assay [5] is Diplococcus pneumoniae IID552. Conditions: Streptococcus pneumoniae; Diplococcus pneumoniae IID552, Gram +; read-out: Minimum inhibitory concentration. Here is the method:
as §1

In assay [6] the test system is Escherichia coli NIHJ JC-2. Conditions: NIHJJC2, read-out: Minimum inhibitory concentration. The procedure:
as §1

For assay [7], the system named is Pseudomonas aeruginosa VI. Conditions: Gram -, read-out: Minimum inhibitory concentration. The procedure:
as §1

Assay [8] deals with Bacillus subtilis PCI219. Conditions: Bacillus subtilis PCI219, Gram +; read-out: Minimum inhibitory concentration. The procedure: as §1
Assay [9] relates to Streptococcus pyogenes IID692. Conditions: Streptococcus pyogenes IID692, Gram +; read-out: Minimum inhibitory concentration. Here is the method: as §1
Assay [10] relates to Pseudo. aeruginosa IF012689. Conditions: Pseudomonas aeruginosa; Pseudo. aeruginosa IF012689, Gram -; read-out: Minimum inhibitory concentration. Here is the method: as §1
Assay [11] concerns S. aureus ATCC14775. Conditions: Staphylococcus aureus; S. aureus ATCC14775, Gram +; read-out: Minimum inhibitory concentration. The procedure:
as §1

Assay [12] deals with Staphyloccocus aureus 209P. Conditions: read-out: Minimum inhibitory concentration. Here is the method:
as §1

Converted amounts (≈) assume the structure as drawn. Read-outs that look alike come from different tables or passages of the source.

On to `CCn1cc(C(=O)O)c(=O)c2cc(F)c(N3CCNCC3)cc21` [Example 1, 1-ethyl-6-fluoro-7-(1-piperazinyl)-4-oxo-1,4-dihydroquinoline-3-carboxylicacid], for which the MIC is 0.1 µg/mL (≈ 0.313 µM) in assay [1]; 0.1 µg/mL (≈ 0.313 µM) in assay [2]; 0.05 µg/mL (≈ 0.157 µM) in assay [3]; 0.2 µg/mL (≈ 0.626 µM) in [4] (Salmonella enteritidis IID604, Gram -); 3.13 µg/mL (≈ 9.8 µM) in assay [5]; 0.1 µg/mL (≈ 0.313 µM) in assay [6]. Also, the MIC in [7] came out at 0.39 µg/mL (≈ 1.22 µM); in assay [8] it was 0.39 µg/mL (≈ 1.22 µM); in assay [9], 1.56 µg/mL (≈ 4.89 µM); in [10], 1.56 µg/mL (≈ 4.89 µM); in [11] it was 3.13 µg/mL (≈ 9.8 µM); in assay [12] (Staphyloccocus aureus 209P, Gram +), 0.78 µg/mL (≈ 2.44 µM).
In the case of `CCn1cc(C(=O)O)c(=O)c2cc(F)c(N3CCN(C)CC3)cc21` [Example 6, 1-ethyl-6-fluoro-7-(4-methyl-1-piperazinyl)-4-oxo-1,4-dihydroquinoline-3-carboxylic acid], the MIC is 0.1 µg/mL (≈ 0.3 µM) in assay [1]; 0.05 µg/mL (≈ 0.15 µM) in assay [3]; 0.78 µg/mL (≈ 2.34 µM) in assay [4]; 3.13 µg/mL (≈ 9.39 µM) in assay [5]; 6.25 µg/mL (≈ 18.7 µM) in [9]; 3.13 µg/mL (≈ 9.39 µM) in assay [10].
Turning to `C=Cn1cc(C(=O)O)c(=O)c2cc(F)c(N3CCNCC3)cc21` [Example 8, 1-vinyl-6-fluoro-7-(1-piperazinyl)-4-oxo-1,4-dihydroquinoline-3-carboxylicacid], the MIC in [9] was determined as 12.5 µg/mL (≈ 39.4 µM).
For the compound `C=Cn1cc(C(=O)O)c(=O)c2cc(F)c(N3CCN(C)CC3)cc21` [Example 9, 1-vinyl-6-fluoro-7-(4-methyl-1-piperazinyl)-4-oxo-1,4-dihydroquinoline-3-carboxylic acid], the MIC in assay [9] was 12.5 µg/mL (≈ 37.7 µM).
Regarding `CCn1cc(C(=O)O)c(=O)c2ccc(C)nc21` [NA, Nalidixic acid, reference compound], the MIC in assay [12] turned out to be 50 µg/mL (≈ 215 µM).
